Values after ≈ are worked out from the molar mass of the structure shown. Like-named read-outs stand apart in the source and are kept apart here.
Columns and labels:
Assay type in all cases: cell-based
Staph. 133 = experiment: MIC by serial dilution on Iso-Sensitest agar, Staph. 133; settings: 37° C., about 20 hours, about 10^4 colony-forming particles
Method: (§1) The minimum inhibitory concentrations (MIC) there determined by the serial dilution method on Iso-Sensitest agar (Oxoid). For each test substance, a number of agar plates were prepared which, at twice the dilution in each case, contained falling concentrations of the active compound. The agar plates were inoculated using a multipoint inoculator (Denley). For inoculation, overnight cultures of the pathogenic organisms were used which had previously been diluted such that each inoculation point contained about 10^4 colony-forming particles. The inoculated agar plates were incubated at 37° C., and the microbial growth was read off after about 20 hours. The MIC (μg/ml) indicates the lowest active compound concentration at which it was not possible to detect growth using the naked eye.

Staph. 48N = experiment: MIC by serial dilution on Iso-Sensitest agar, Staph. 48N; settings: 37° C., about 20 hours, about 10^4 colony-forming particles
Method: as §1

Staph 25701 = experiment: MIC by serial dilution on Iso-Sensitest agar, Staph 25701; settings: 37° C., about 20 hours, about 10^4 colony-forming particles
Method: as §1

Staph. 9TV = experiment: MIC by serial dilution on Iso-Sensitest agar, Staph. 9TV; settings: 37° C., about 20 hours, about 10^4 colony-forming particles
Method: as §1

E. coli Neumann = experiment: MIC by serial dilution on Iso-Sensitest agar, E. coli Neumann; settings: Escherichia coli, 37° C., about 20 hours, about 10^4 colony-forming particles
Method: as §1

Klebs. 57 USA = experiment: MIC by serial dilution on Iso-Sensitest agar, Klebs. 57 USA; settings: 37° C., about 20 hours, about 10^4 colony-forming particles
Method: as §1

Psdm. Bonn = experiment: MIC by serial dilution on Iso-Sensitest agar, Psdm. Bonn; settings: 37° C., about 20 hours, about 10^4 colony-forming particles
Method: as §1

[1] = tested on: Mycobacterium smegmatis DSM 43061; experiment: MIC by broth microdilution, Mycobacterium smegmatis DSM 43061; settings: Mycolicibacterium smegmatis, DSM43061
Method: (§2) For rapidly growing mycobacteria, the MIC determination was carried out following the method of broth microdilution described by Swenson [cf. J. M. Swenson, C. Thornberry, U. A. Silcox, Rapidly growing mycobacteria. Testing of susceptibility to 34 antimicrobial agents by broth microdilution. Antimicrobial Agents and Chemotherapy Vol. 22, 186-192 (1982)]. A deviation from this was the brain-heart extract medium treated with 0.1% by volume of Tween 80.
(§3) The mycobacterial strains used wvere ordered from DSM (German Collection of Microorganisms, Brunswick). They were incubated at 37° C. in a humid chamber.
(§4) The MICs were read off after 2-4 days when the preparation-free controls were cloudy as a result of growth.

[2] = tested on: Mycobacterium smegmatis DSM 43465; experiment: MIC by broth microdilution, Mycobacterium smegmatis DSM 43465; settings: Mycolicibacterium smegmatis, DSM43465
Method: as §2, §3, §4

[3] = DSM 43061, inoculum 2.20U+04 /ml, brain-heart extract medium with 0.1% Tween 80, 37° C., 2-4 days, read-out: MIC
[4] = DSM 43465, inoculum 3.10U+04 /ml, brain-heart extract medium with 0.1% Tween 80, 37° C., 2-4 days, read-out: MIC

In the case of `CC(=O)NC[C@H]1CN(c2ccc3c(ccc(=O)n3C(C)C)c2)C(=O)O1` [Example 5], the MIC (Staph. 133) is reported as 16 µg/mL (≈ 46.6 µM), the MIC (Staph. 48N) is reported as 16 µg/mL (≈ 46.6 µM) and the MIC (Staph 25701) is reported as 16 µg/mL (≈ 46.6 µM). For the same compound, the MIC (Staph. 9TV) was 8 µg/mL (≈ 23.3 µM), the MIC (E. coli Neumann) was over 64 µg/mL and the MIC (Klebs. 57 USA) was over 64 µg/mL. For the same compound, the MIC (Psdm. Bonn) was over 64 µg/mL.

Compound `CC(=O)NC[C@H]1CN(c2ccc3c(ccc(=O)n3CC#N)c2)C(=O)O1` [Example 6] has an MIC [1, 3] of 8 µg/mL (≈ 23.5 µM) and an MIC [2, 4] of 4 µg/mL (≈ 11.8 µM).

`NNC(=O)c1ccncc1` [Isoniazide, reference compound] gave an MIC [1, 3] of 4 µg/mL (≈ 29.2 µM) and an MIC [2, 4] of 1 µg/mL (≈ 7.29 µM).

In the case of `[H]/N=C(/N)N[C@H]1[C@H](O)[C@@H](O)[C@H](O[C@@H]2O[C@@H](C)[C@](O)(C=O)[C@H]2O[C@@H]2O[C@@H](CO)[C@H](O)[C@@H](O)[C@@H]2NC)[C@@H](N/C(N)=N\[H])[C@@H]1O` [Streptomycin, reference compound], the MIC [1] is reported as 4 µg/mL (≈ 6.88 µM) and the MIC [2] is reported as 4 µg/mL (≈ 6.88 µM).

`CC(=O)NC[C@H]1CN(c2ccc3c(ccc(=O)n3CCO)c2)C(=O)O1` [Example 7] gave an MIC (Staph. 133) of 8 µg/mL (≈ 23.2 µM), an MIC (Staph. 48N) of 8 µg/mL (≈ 23.2 µM) and an MIC (Staph 25701) of 8 µg/mL (≈ 23.2 µM). It also gave an MIC (Staph. 9TV) of 2 µg/mL (≈ 5.79 µM), an MIC (E. coli Neumann) of over 32 µg/mL and an MIC (Klebs. 57 USA) of over 32 µg/mL. The MIC (Psdm. Bonn) was over 32 µg/mL.

Compound `CC(=O)NC[C@H]1CN(c2ccc3c(ccc(=O)n3C)c2)C(=O)O1` [Example 3] has an MIC (Staph. 133) of 2 µg/mL (≈ 6.34 µM), an MIC (Staph. 48N) of 2 µg/mL (≈ 6.34 µM) and an MIC (Staph 25701) of 2 µg/mL (≈ 6.34 µM). For the same compound, the MIC (Staph. 9TV) was 1 µg/mL (≈ 3.17 µM), the MIC (E. coli Neumann) was over 64 µg/mL and the MIC (Klebs. 57 USA) was over 64 µg/mL. The MIC (Psdm. Bonn) was over 64 µg/mL, the MIC [1, 3] was 2 µg/mL (≈ 6.34 µM) and the MIC [2, 4] was 8 µg/mL (≈ 25.4 µM).

For `CCn1c(=O)ccc2cc(N3C[C@H](CNC(C)=O)OC3=O)ccc21` [Example 4], the MIC (Staph. 133) was 4 µg/mL (≈ 12.1 µM), the MIC (Staph. 48N) was 8 µg/mL (≈ 24.3 µM) and the MIC (Staph 25701) was 4 µg/mL (≈ 12.1 µM). The MIC (Staph. 9TV) was 2 µg/mL (≈ 6.07 µM), the MIC (E. coli Neumann) was over 64 µg/mL and the MIC (Klebs. 57 USA) was over 64 µg/mL. The MIC [1, 3] was 4 µg/mL (≈ 12.1 µM) and the MIC [2, 4] was 8 µg/mL (≈ 24.3 µM).

Work on `CC(=O)NC[C@H]1CN(c2ccc3c(ccc(=O)n3S(C)(=O)=O)c2)C(=O)O1` [Example 12] yielded an MIC (Staph. 133) of 8 µg/mL (≈ 21.1 µM), an MIC (Staph. 48N) of 8 µg/mL (≈ 21.1 µM) and an MIC (Staph 25701) of 8 µg/mL (≈ 21.1 µM). It also gave an MIC (Staph. 9TV) of 4 µg/mL (≈ 10.5 µM), an MIC (E. coli Neumann) of over 64 µg/mL and an MIC (Klebs. 57 USA) of over 64 µg/mL. It also gave an MIC (Psdm. Bonn) of over 64 µg/mL.
